Measurements reported in ChEMBL document CHEMBL4190175 (Medchemcomm, 2016).
pIC50: −log10 of the molar value. The source made the active and inactive calls. The rule behind the calls is not given here.

Experiments:
[1] = molecular target: T1, Transient receptor potential cation channel subfamily A member 1 (Homo sapiens, UniProt O75762); experiment: Antagonist activity at full length human TRPA1 at holding potential of 15 mV measured after 1 min by PatchXpress electrophysiology assay
[2] = Passive permeability of the compound in RRCK cells; assay type: ADME, cell-based, Canis lupus familiaris, MDCKII-LE; settings: dog, MDCK; read-out: permeability
[3] = Stability in human liver microsomes assessed as metabolic turnover number at 10 uM after 15 mins by LC-MS/UV analysis; assay type: ADME, microsome; settings: read-out: Stability
[4] = molecular target: T1, Transient receptor potential cation channel subfamily A member 1; experiment: Antagonist activity at full length human TRPA1 expressed in 293-T-REx cells by FLIPR assay
[5] = Ratio of permeability from basolateral to apical side over apical to basolateral side in RRCK cells expressing MDR1; assay type: ADME, cell-based, Canis lupus familiaris; settings: dog, mdckii-le
[6] = Lipophilicity, log D of the compound; assay type: physicochemical; settings: octanol/water
Rattus norvegicus [7] = experiment: Suppression of cinnamaldehyde-induced flare response in Sprague-Dawley rat skin at 50 to 100 mg/kg administered topically measured after 30 to 90 mins by recording blood flow for 30 mins by laser Doppler sonography method; assay type: functional, organism-based
Rattus norvegicus [8] = experiment: Suppression of cinnamaldehyde-induced flare response in Sprague-Dawley rat skin at 50 to 100 mg/kg administered topically preincubated for 30 to 90 mins measured by recording blood flow for 30 mins by laser Doppler sonography method; assay type: functional, organism-based
[9] = molecular target: Transient receptor potential cation channel subfamily A member 1 (Rattus norvegicus, UniProt Q6RI86); experiment: Antagonist activity at rat TRPA1 by electrophysiology assay
[10] = Drug uptake in Sprague-Dawley rat skin epidermal layer at 0.68 mg applied topically measured after 24 hrs; assay type: ADME, tissue-based, Skin epidermis; settings: topical or ocular, read-out: Drug uptake
[11] = Drug uptake in Sprague-Dawley rat skin dermal layer at 0.68 mg applied topically measured after 24 hrs; assay type: ADME, tissue-based, Dermis; settings: topical or ocular, read-out: Drug uptake

T1 sequence (O75762 whole entry): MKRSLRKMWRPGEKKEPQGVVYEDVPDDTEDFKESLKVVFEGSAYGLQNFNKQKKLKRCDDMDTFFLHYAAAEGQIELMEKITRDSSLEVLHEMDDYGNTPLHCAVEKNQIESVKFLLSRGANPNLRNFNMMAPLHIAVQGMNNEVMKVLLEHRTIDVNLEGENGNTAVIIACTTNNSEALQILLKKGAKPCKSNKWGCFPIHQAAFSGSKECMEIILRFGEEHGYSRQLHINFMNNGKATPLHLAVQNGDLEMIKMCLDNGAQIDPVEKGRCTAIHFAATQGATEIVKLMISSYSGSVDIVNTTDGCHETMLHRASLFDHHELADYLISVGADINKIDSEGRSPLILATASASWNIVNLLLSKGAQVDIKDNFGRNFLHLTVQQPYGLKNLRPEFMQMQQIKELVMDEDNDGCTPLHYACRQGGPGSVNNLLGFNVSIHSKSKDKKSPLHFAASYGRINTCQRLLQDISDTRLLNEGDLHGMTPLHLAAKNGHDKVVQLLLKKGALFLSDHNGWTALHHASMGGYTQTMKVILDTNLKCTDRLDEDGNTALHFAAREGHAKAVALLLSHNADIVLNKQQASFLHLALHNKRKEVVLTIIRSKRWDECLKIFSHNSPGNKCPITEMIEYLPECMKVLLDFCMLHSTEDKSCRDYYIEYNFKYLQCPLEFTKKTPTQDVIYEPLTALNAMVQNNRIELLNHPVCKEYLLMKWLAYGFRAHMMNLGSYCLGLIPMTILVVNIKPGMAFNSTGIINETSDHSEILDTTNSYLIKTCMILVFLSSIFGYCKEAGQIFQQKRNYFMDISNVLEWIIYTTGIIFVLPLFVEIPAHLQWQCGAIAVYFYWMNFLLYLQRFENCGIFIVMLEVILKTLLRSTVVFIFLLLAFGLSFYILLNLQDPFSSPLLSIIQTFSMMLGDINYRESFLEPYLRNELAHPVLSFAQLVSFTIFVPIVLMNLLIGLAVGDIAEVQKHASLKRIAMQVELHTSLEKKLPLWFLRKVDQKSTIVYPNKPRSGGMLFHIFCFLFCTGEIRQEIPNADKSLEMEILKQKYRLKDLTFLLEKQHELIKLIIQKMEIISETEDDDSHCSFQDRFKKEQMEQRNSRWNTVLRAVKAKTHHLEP
Transient receptor potential cation channel subfamily A member 1 (Rattus norvegicus, UniProt Q6RI86), sequence (Q6RI86 whole entry): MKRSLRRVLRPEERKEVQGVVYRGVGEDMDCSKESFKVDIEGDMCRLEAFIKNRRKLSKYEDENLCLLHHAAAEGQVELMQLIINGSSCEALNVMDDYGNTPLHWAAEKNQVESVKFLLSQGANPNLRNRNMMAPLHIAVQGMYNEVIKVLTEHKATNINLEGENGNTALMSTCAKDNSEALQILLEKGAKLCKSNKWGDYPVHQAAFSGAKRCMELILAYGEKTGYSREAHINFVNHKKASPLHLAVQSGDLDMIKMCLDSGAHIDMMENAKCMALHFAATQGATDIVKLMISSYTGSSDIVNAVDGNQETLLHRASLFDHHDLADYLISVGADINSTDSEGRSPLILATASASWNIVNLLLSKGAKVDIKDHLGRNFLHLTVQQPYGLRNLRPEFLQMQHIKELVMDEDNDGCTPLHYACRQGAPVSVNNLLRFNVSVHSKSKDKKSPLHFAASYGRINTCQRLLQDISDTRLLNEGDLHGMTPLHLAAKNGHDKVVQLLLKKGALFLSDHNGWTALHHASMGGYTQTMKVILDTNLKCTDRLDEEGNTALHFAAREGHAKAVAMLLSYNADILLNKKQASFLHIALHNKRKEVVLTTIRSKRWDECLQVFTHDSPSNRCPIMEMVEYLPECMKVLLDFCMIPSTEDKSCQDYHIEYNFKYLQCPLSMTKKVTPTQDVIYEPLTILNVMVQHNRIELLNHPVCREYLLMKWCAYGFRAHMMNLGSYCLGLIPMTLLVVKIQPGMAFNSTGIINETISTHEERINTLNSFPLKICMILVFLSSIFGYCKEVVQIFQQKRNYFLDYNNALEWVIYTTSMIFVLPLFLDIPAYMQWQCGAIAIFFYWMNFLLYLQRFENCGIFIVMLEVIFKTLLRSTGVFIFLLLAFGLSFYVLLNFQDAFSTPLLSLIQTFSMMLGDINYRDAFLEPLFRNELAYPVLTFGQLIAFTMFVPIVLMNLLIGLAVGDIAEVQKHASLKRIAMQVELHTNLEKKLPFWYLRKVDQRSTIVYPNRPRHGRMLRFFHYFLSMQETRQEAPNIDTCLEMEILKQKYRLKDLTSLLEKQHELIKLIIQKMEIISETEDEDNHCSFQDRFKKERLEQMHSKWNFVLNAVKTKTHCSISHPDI

| pIC50 [1] | Papp [2] | microsomal CLint at 10 µM [3] | pIC50 [4] | SMILES | further results |
| --- | --- | --- | --- | --- | --- |
| < 6.00 | < 10 nm/s | 312 µL/min/mg | – | O=C(NCC(Cc1ccccc1)N1CCN(c2ccccn2)CC1)C1(c2ccc(Cl)cc2)CCCC1 (racemic) | – |
| – | – | 146 µL/min/mg | < 5.00 | Cc1nc(C(=O)NCC(Cc2ccccc2)N2CCC(O)(C(F)(F)F)CC2)c(C(F)(F)F)o1 (racemic) | – |
| 7.00 | – | > 320 µL/min/mg | – | CC(C)(C)[C@H]1CC[C@H](C(=O)NCC(Cc2ccccc2)N2CCC(O)(C(F)(F)F)CC2)CC1 (mixture of isomers) | – |
| 7.04 | 310 nm/s | 284 µL/min/mg | – | CC(C)(C(=O)NCC(Cc1ccccc1)N1CCC(O)(C(F)(F)F)CC1)C(F)(F)F (racemic) | – |
| – | 3 nm/s | > 320 µL/min/mg | < 5.00 | O=C(NCC(Cc1ccc(F)cc1)N1CCC2(C1)CC2(F)F)C1(c2ccc(F)cc2)CCCC1 (racemic) | – |
| < 5.52 | 40 nm/s | > 320 µL/min/mg | – | O=C(NCC(c1ccccc1)N1CCC(O)(C(F)(F)F)CC1)C1(c2ccc(Cl)cc2)CC1 (racemic) | – |
| < 6.00 | < 10 nm/s | > 320 µL/min/mg | – | CC(C)C(CNC(=O)C1(c2ccc(Cl)cc2)CCCC1)N1CCC(O)(C(F)(F)F)CC1 (racemic) | – |
| – | – | > 320 µL/min/mg | < 5.00 | O=C(NCC(Cc1ccc(F)cc1)N1CCC2(CC1)COC2)C1(c2ccc(F)cc2)CCCC1 (racemic) | – |
| 6.80 | – | > 320 µL/min/mg | – | CC(C)c1csc(C(=O)NCC(Cc2ccccc2)N2CCC(O)(C(F)(F)F)CC2)n1 (racemic) | – |
| 5.72 | 10 nm/s | > 320 µL/min/mg | – | O=C(NC[C@H](Cc1ccccc1)N1CCC(O)(C(F)(F)F)CC1)C1(c2ccc(Cl)cc2)CCCC1 | Ratio [5]: 1; logD [6]: 4.7 |
| – | – | > 320 µL/min/mg | < 5.00 | CC(C)(C)c1ccc(CC(=O)NCC(Cc2ccccc2)N2CCC(O)(C(F)(F)F)CC2)cc1 (racemic) | – |
| 7.77 | 10 nm/s | > 320 µL/min/mg | 6.43 | O=C(NCC(Cc1ccccc1)N1CCC(O)(C(F)(F)F)CC1)C1(c2ccc(Cl)cc2)CCCC1 (racemic) | Activity (Rattus norvegicus [7]): Active; Activity (Rattus norvegicus [8]): Active |
| 6.51 | – | – | – | O=C(NCC(Cc1ccccc1)N1CCC(O)(C(F)(F)F)C1)C1(c2ccc(F)cc2)CCC1 (racemic) | – |
| 5.72 | 30 nm/s | > 320 µL/min/mg | – | O=C(NCC(CC1CCOCC1)N1CCC(O)(C(F)(F)F)CC1)C1(c2ccc(Cl)cc2)CCCC1 (racemic) | – |
| – | – | – | 5.77 | CCCC(C)(C)C(=O)NC[C@H](Cc1ccccc1)N1CCC(O)(C(F)(F)F)CC1 | – |
| 6.00 | – | 149 µL/min/mg | – | O=C(NCC(Cc1ccccc1)N1CCC(O)(C(F)(F)F)CC1)C1(C(F)(F)F)CC1 (racemic) | – |

| pIC50 [1] | Papp [2] | microsomal CLint at 10 µM [3] | pIC50 [4] | SMILES | further results |
| --- | --- | --- | --- | --- | --- |
| – | – | – | 7.15 | CCCC(C)(C)C(=O)NC[C@@H](Cc1ccccc1)N1CCC(O)(C(F)(F)F)CC1 | – |
| 6.32 | – | > 320 µL/min/mg | – | O=C(NC[C@H](Cc1ccccc1)N1CCC(O)(C(F)(F)F)CC1)C1(c2ccc(Cl)cc2)CC1 | – |
| – | – | 170 µL/min/mg | < 5.00 | O=C(NCC(Cc1ccc(F)cc1)N1CCC(O)C1)C1(c2ccc(F)cc2)CCCC1 (racemic) | – |
| 5.84 | – | – | – | O=C(NCC(Cc1ccc(F)cc1)N1CCC(C(F)(F)F)C1)C1(c2ccc(F)cc2)CCCC1 (racemic) | – |
| 7.28 | – | > 320 µL/min/mg | – | O=C(NC[C@@H](Cc1ccccc1)N1CCC(O)(C(F)(F)F)CC1)C1(c2ccc(Cl)cc2)CC1 | – |
| 6.07 | – | > 320 µL/min/mg | – | CC1(C(=O)NCC(Cc2ccccc2)N2CCC(O)(C(F)(F)F)CC2)CCCCC1 (racemic) | – |
| – | – | > 320 µL/min/mg | < 5.00 | O=C(NCC(Cc1ccc(F)cc1)N1CC2CCC1C2)C1(c2ccc(F)cc2)CC1 (racemic) | – |
| 8.00 | – | – | – | O[C@]12CCCC[C@@H]1CCC[C@H]2Nc1ccc(F)cc1 | pIC50 [9]: 8.10; concentration at 24 h [10]: 86000 ng/g; concentration at 24 h [11]: 232000 ng/g |
| < 6.00 | – | > 320 µL/min/mg | – | CN(CC(Cc1ccccc1)N1CCC(O)(C(F)(F)F)CC1)C(=O)C1(c2ccc(Cl)cc2)CCCC1 (racemic) | – |
| 7.08 | 80 nm/s | 285 µL/min/mg | – | O=C(NCC(Cc1ccccc1)N1CCC(O)(C(F)(F)F)CC1)c1cc(C(F)(F)F)ccn1 (racemic) | – |
| 6.17 | 60 nm/s | 238 µL/min/mg | – | O=C(NCC(Cc1ccccc1)N1CCC(C(F)(F)F)CC1)C1(c2ccc(F)cc2)CCCC1 (racemic) | – |
| 4.57 | 10 nm/s | 42 µL/min/mg | – | CN1CCC(CC(CNC(=O)C2(c3ccc(Cl)cc3)CCCC2)N2CCC(O)(C(F)(F)F)CC2)CC1 (racemic) | – |
| – | – | 168 µL/min/mg | < 5.00 | O=C1CCC2(CCN(C(CNC(=O)C3(c4ccc(F)cc4)CC3)Cc3ccc(F)cc3)CC2)N1 (racemic) | – |
| < 5.52 | 30 nm/s | > 320 µL/min/mg | – | CN1CCN(C(CNC(=O)C2(c3ccc(Cl)cc3)CCCC2)Cc2ccccc2)CC1 (racemic) | – |
| 7.14 | 20 nm/s | > 320 µL/min/mg | – | O=C(NCC(Cc1ccccc1)N1CCC(O)(C(F)(F)F)CC1)C1(c2ccc(Cl)cc2)CC1 (racemic) | – |

| SMILES | pIC50 [1] | Papp [2] | microsomal CLint at 10 µM [3] | pIC50 [4] | further results |
| --- | --- | --- | --- | --- | --- |
| O=C(NCC(Cc1ccc(F)cc1)N1C2CCC1CC(O)(C(F)(F)F)C2)C1(c2ccc(F)cc2)CCCC1 (racemic) | 6.08 | – | > 320 µL/min/mg | – | – |
